Assays:
UO-31 = assay: NCI 60 five-dose screen UO-31; type: cell-based; conditions: Homo sapiens, five-dose
NCI-H226 = assay: NCI 60 five-dose screen NCI-H226; type: cell-based; conditions: Homo sapiens, five-dose
U251 = assay: NCI 60 five-dose screen U251; type: cell-based; conditions: Homo sapiens, U-251, five-dose
SK-MEL-28 = assay: NCI 60 five-dose screen SK-MEL-28; type: cell-based; conditions: Homo sapiens, five-dose
HCC-2998 = assay: NCI 60 five-dose screen HCC-2998; type: cell-based; conditions: Homo sapiens, five-dose
HOP-62 = assay: NCI 60 five-dose screen HOP-62; type: cell-based; conditions: Homo sapiens, five-dose
full NCI 60 cell panel = assay: NCI 60 Cell One-dose screen; type: cell-based, human; conditions: single high dose 10^−5 M, NCI 60 panel
Text: Compounds were submitted to the NCI 60 Cell screen and tested at a single high dose (10^−5 M) in the full NCI 60 cell panel (see the following reference for details of using NCI 60 human tumor cell lines for screening anticancer drugs: Shoemaker R H. The NCI60 human tumor cell line anticancer drug screen. Nature Rev Cancer 2006; 6: 813-23). The One-dose data is reported as a mean graph of the percent growth of treated cells. The number reported for the One-dose assay is growth relative to the no-drug control, and relative to the time zero number of cells. This allows detection of both growth inhibition (values between 0 and 100) and lethality (values less than 0). For example, a value of 100 means no growth inhibition. A value of 40 would mean 60% growth inhibition. A value of 0 means no net growth over the course of the experiment. A value of −40 would mean 40% lethality. A value of −100 means all cells are dead. FIGS. 1-8 show the mean graph of percent growth against the NCI-60 cell panel for NUCC-0226674, NUCC-0226679, NUCC-0226680, NUCC-0226683, NUCC-0226689, NUCC-0226694, NUCC-0226695, and NUCC-0226698.

MOLT-4 = assay: NCI 60 five-dose screen MOLT-4; type: cell-based; conditions: Homo sapiens, five-dose
COLO 205 = assay: NCI 60 five-dose screen COLO 205; type: cell-based; conditions: Homo sapiens, five-dose
A549/ATCC = assay: NCI 60 five-dose screen A549/ATCC; type: cell-based; conditions: Homo sapiens, five-dose
NCI-H460 = assay: NCI 60 five-dose screen NCI-H460; type: cell-based; conditions: Homo sapiens, five-dose
MDA-MB-231/ATCC = assay: NCI 60 five-dose screen MDA-MB-231/ATCC; type: cell-based; conditions: Homo sapiens, five-dose
LOX IMVI = assay: NCI 60 five-dose screen LOX IMVI; type: cell-based; conditions: Homo sapiens, five-dose
UACC-257 = assay: NCI 60 five-dose screen UACC-257; type: cell-based; conditions: Homo sapiens, five-dose
UACC-62 = assay: NCI 60 five-dose screen UACC-62; type: cell-based; conditions: Homo sapiens, five-dose
SNB-19 = assay: NCI 60 five-dose screen SNB-19; type: cell-based; conditions: Homo sapiens, five-dose
SN12C = assay: NCI 60 five-dose screen SN12C; type: cell-based; conditions: Homo sapiens, five-dose
RXF 393 = assay: NCI 60 five-dose screen RXF 393; type: cell-based; conditions: Homo sapiens, five-dose
IGROV1 = assay: NCI 60 five-dose screen IGROV1; type: cell-based; conditions: Homo sapiens, IGROV-1, five-dose
SNB-75 = assay: NCI 60 five-dose screen SNB-75; type: cell-based; conditions: Homo sapiens, five-dose
SF-539 = assay: NCI 60 five-dose screen SF-539; type: cell-based; conditions: Homo sapiens, five-dose
786-0 = assay: NCI 60 five-dose screen 786-0; type: cell-based; conditions: Homo sapiens, five-dose
[1] = read-out: LC50 (the source's name) (converted)

FC(F)(F)c1cc2c(Cl)ncnc2n1CCC1CCOCC1 [NUCC-0226674]
GI50 (UO-31): 1.78 µM | IC50 (UO-31): 3.39 µM | IC (TGI) (UO-31): 3.8 µM | CC50 (UO-31; [1]): 7.94 µM | GI50 (NCI-H226): 13.8 µM | IC50 (NCI-H226): 30.2 µM | IC (TGI) (NCI-H226): 28.8 µM | CC50 (NCI-H226; [1]): 58.9 µM | GI50 (U251): 2.09 µM | IC50 (U251): 3.24 µM | IC (TGI) (U251): 5.62 µM | CC50 (U251; [1]): 28.2 µM | GI50 (SK-MEL-28): 2.63 µM | IC50 (SK-MEL-28): 4.57 µM | IC (TGI) (SK-MEL-28): 6.03 µM | CC50 (SK-MEL-28; [1]): 21.4 µM | GI50 (HCC-2998): 1.62 µM | IC50 (HCC-2998): 2.95 µM | IC (TGI) (HCC-2998): 3.02 µM | CC50 (HCC-2998; [1]): 5.62 µM | GI50 (HOP-62): 17 µM | IC50 (HOP-62): 33.1 µM | IC (TGI) (HOP-62): 35.5 µM | CC50 (HOP-62; [1]): 72.4 µM | growth inhibition in the One-Dose Screen (full NCI 60 cell panel): significant growth inhibition | GI50 (MOLT-4): 2.34 µM | IC50 (MOLT-4): 4.27 µM | IC (TGI) (MOLT-4): 5.5 µM | CC50 (MOLT-4; read-out: LC50 (the source's name)): ≥ 100 µM | GI50 (COLO 205): 16.2 µM | IC50 (COLO 205): 30.2 µM | IC (TGI) (COLO 205): 37.2 µM | CC50 (COLO 205; [1]): 85.1 µM | GI50 (A549/ATCC): 21.9 µM | IC50 (A549/ATCC): 34.7 µM | IC (TGI) (A549/ATCC): 56.2 µM | CC50 (A549/ATCC; [1]): ≥ 100 µM | GI50 (NCI-H460): 2.4 µM | IC50 (NCI-H460): 3.55 µM | IC (TGI) (NCI-H460): 5.62 µM | CC50 (NCI-H460; [1]): 22.4 µM | GI50 (MDA-MB-231/ATCC): 3.89 µM | IC50 (MDA-MB-231/ATCC): 8.13 µM | IC (TGI) (MDA-MB-231/ATCC): 14.1 µM | CC50 (MDA-MB-231/ATCC; [1]): 43.7 µM | GI50 (LOX IMVI): 1.62 µM | IC50 (LOX IMVI): 2.88 µM | IC (TGI) (LOX IMVI): 3.02 µM | CC50 (LOX IMVI; [1]): 5.5 µM | GI50 (UACC-257): 3.55 µM | IC50 (UACC-257): 9.33 µM | IC (TGI) (UACC-257): 15.5 µM | CC50 (UACC-257; [1]): 52.5 µM | GI50 (UACC-62): 4.27 µM | IC50 (UACC-62): 8.13 µM | IC (TGI) (UACC-62): 15.8 µM | CC50 (UACC-62; [1]): 40.7 µM | GI50 (SNB-19): 5.25 µM | IC50 (SNB-19): 12.3 µM | IC (TGI) (SNB-19): 18.2 µM | CC50 (SNB-19; [1]): 43.7 µM | GI50 (SN12C): 6.61 µM | IC50 (SN12C): 12.6 µM | IC (TGI) (SN12C): 20 µM | CC50 (SN12C; [1]): 46.8 µM | GI50 (RXF 393): 8.71 µM | IC50 (RXF 393): 24 µM | IC (TGI) (RXF 393): 21.9 µM | CC50 (RXF 393; [1]): 51.3 µM | GI50 (IGROV1): 1.78 µM | IC50 (IGROV1): 3.16 µM | IC (TGI) (IGROV1): 3.47 µM | CC50 (IGROV1; [1]): 6.76 µM | GI50 (SNB-75): 3.09 µM | IC50 (SNB-75): 15.5 µM | IC (TGI) (SNB-75): 15.1 µM | CC50 (SNB-75; [1]): 39.8 µM | GI50 (SF-539): 13.8 µM | IC50 (SF-539): 24.5 µM | IC (TGI) (SF-539): 27.5 µM | CC50 (SF-539; [1]): 56.2 µM | GI50 (786-0): 16.2 µM | IC50 (786-0): 28.2 µM | IC (TGI) (786-0): 32.4 µM | CC50 (786-0; [1]): 64.6 µM

Reference: patent US20240109903A1, “SUBSTITUTED HETEROCYCLES FOR TREATING CANCER” (Northwestern University, priority 2022, published 2024)
